For this experiment, the target named is T1, Nav 1.7 (Homo sapiens, UniProt Q15858).
T1 construct: expressed in transfected cells
Kind of experiment: Whole-cell voltage clamp electrophysiology, automated patch clamp (marker c in Table of Examples). The settings on record: read-out: Nav 1.7 activity. It is filed as cell-based. An outline of the steps:
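Human NaV1.7 currents were recorded by whole-cell automated patch clamp, on IonWorks Quattro or another automated platform, typically in perforated-patch configuration. The stimulus protocol was designed to probe block mainly of the inactivated state, with a typical sweep stepping from about −65 mV holding to −10 mV, then −100 mV.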

Setting [1] is: marker c = Automated patch clamp data.
The mark [2] stands for this setting: marker c: Automated patch clamp data.

Structures can show the parent of a compound that is named as a salt. Where two headings read alike, the source gives them in different places.

T1 sequence (Q15858 whole entry): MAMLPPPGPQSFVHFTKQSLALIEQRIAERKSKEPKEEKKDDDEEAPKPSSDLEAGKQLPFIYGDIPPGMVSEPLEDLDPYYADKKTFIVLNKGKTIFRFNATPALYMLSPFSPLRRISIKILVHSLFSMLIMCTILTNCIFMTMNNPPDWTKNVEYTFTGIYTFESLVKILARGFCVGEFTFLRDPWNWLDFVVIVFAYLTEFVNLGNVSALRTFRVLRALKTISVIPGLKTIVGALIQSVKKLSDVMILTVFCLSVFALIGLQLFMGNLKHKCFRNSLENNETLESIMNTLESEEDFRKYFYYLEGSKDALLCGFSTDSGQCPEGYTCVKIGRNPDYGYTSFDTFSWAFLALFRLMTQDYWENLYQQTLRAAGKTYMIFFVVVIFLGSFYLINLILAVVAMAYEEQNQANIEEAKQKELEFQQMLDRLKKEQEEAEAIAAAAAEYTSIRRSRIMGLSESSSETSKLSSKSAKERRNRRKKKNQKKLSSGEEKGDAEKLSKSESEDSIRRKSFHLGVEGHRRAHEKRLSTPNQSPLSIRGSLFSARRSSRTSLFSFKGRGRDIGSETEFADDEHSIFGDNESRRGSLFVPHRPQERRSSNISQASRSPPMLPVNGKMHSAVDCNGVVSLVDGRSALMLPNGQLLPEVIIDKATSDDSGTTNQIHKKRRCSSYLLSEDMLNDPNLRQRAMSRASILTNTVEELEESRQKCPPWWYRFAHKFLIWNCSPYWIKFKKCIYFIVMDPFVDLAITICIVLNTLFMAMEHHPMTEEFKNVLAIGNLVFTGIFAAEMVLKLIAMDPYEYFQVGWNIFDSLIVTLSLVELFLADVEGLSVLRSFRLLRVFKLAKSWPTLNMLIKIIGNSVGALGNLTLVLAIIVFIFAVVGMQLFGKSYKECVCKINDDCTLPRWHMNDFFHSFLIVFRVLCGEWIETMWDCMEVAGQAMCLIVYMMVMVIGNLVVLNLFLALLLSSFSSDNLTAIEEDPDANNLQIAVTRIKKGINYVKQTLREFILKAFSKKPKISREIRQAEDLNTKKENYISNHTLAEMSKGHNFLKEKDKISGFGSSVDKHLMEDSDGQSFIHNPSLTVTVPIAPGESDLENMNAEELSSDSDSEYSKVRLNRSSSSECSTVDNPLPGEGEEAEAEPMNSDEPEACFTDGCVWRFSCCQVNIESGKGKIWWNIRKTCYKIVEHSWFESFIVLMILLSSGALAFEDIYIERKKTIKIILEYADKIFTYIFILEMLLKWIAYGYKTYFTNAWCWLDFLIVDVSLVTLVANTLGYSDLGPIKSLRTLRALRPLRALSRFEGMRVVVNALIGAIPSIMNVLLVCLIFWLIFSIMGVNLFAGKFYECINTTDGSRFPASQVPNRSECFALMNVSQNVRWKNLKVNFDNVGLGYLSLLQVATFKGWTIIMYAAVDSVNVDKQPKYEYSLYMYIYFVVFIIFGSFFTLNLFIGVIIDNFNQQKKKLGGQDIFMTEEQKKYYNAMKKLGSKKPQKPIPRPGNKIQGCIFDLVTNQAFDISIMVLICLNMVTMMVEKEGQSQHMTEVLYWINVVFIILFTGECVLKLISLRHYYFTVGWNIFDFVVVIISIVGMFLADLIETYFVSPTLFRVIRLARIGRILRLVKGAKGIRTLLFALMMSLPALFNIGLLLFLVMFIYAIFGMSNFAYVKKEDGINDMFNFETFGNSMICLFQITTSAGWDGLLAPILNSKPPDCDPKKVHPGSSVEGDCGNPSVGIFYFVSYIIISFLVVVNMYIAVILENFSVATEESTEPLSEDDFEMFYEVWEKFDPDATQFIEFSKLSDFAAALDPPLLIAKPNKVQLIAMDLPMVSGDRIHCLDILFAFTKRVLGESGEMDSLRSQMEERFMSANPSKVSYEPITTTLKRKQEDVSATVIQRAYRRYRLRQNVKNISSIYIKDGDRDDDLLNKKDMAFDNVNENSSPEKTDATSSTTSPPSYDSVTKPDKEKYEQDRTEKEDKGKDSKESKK

On to `CCCS(=O)(=O)N1CC(c2nc(-c3nc(N)nc(N(C)c4ccccc4)n3)no2)C1` [Example 307, 2-N-methyl-2-N-phenyl-6-{5-[1-(propane-1-sulfonyl)azetidin-3-yl]-1,2,4-oxadiazol-3-yl}-1,3,5-triazine-2,4-diamine], for which the IC50 under setting [1] stood at 8050 nM. Consider `CN(c1ccccc1)c1nc(N)nc(-c2noc(-c3ccc(SCCC(F)(F)F)nc3)n2)n1` [Example 453, 2-N-methyl-2-N-phenyl-6-{5-{6-[(3,3,3-trifluoropropyl)sulfanyl]pyridin-3-yl}-1,2,4-oxadiazol-3-yl)-1,3,5-triazine-2,4-diamine], for which the IC50 under setting [1] is 121 nM. In the case of `COCC1CCN(c2nc(-c3nc(N)nc(N(C)c4ccccc4)n3)no2)CC1` [Example 165, 6-{5-[4-(methoxymethyl)piperidin-1-yl]-1,2,4-oxadiazol-3-yl}-2-N-methyl-2-N-phenyl-1,3,5-triazine-2,4-diamine], the IC50 under setting [2] stood at 7690 nM. For `CN(c1ccccc1)c1nc(N)nc(-c2noc(-c3ccncn3)n2)n1` [Example 120, N-Methyl-N-phenyl-6-(5-pyrimidin-4-yl-[1,2,4]oxadiazol-3-yl)-[1,3,5]triazine-2,4-diamine], the IC50 under setting [2] stood at 2240 nM. `CC(C)OC[C@@H]1[C@H]2CN(c3nc(-c4nc(N)nc(N(C)c5ccccc5)n4)no3)C[C@@H]12` [Example 397, 2-N-methyl-2-N-phenyl-6-{5-[6-[(propan-2-yloxy)methyl]-3-azabicyclo[3.1.0]hexan-3-yl]-1,2,4-oxadiazol-3-yl}-1,3,5-triazine-2,4-diamine]: the IC50 under setting [1] is 3940 nM. For the compound `CN(c1ccccc1)c1nc(N)nc(-c2noc(-c3ccc(NCC(F)(F)F)nc3)n2)n1` [Example 327, 2-N-Methyl-2-N-phenyl-6-(5-{6-[(2,2,2-trifluoroethyl)amino]pyridin-3-yl}-1,2,4-oxadiazol-3-yl)-1,3,5-triazine-2,4-diamine], the IC50 under setting [1] is 1860 nM. `CC(C)SCC1CCN(c2nc(-c3nc(N)nc(N(C)c4ccccc4)n3)no2)CC1` [Example 177, 2-N-methyl-2-N-phenyl-6-(5-{4-[(propan-2-ylsulfanyl)methyl]piperidin-1-yl}-1,2,4-oxadiazol-3-yl)-1,3,5-triazine-2,4-diamine]: under setting [2], the IC50 was found to be 306 nM. Still for that read-out and setting: the figure for `COc1ccccc1-c1nc(-c2nc(N)nc(N(C)c3ccccc3F)n2)no1` [Example 89, N-(2-Fluoro-phenyl)-6-[5-(2-methoxy-phenyl)-[1,2,4]oxadiazol-3-yl]-N-methyl-[1,3,5]triazine-2,4-diamine] is 200 nM. Regarding `C=Cc1ccc(-c2nc(-c3nc(N)nc(N(C)c4ccccc4)n3)no2)cc1` [Example 305, 6-[5-(4-ethenylphenyl)-1,2,4-oxadiazol-3-yl]-2-N-methyl-2-N-phenyl-1,3,5-triazine-2,4-diamine], the IC50 under setting [1] is 804 nM.

With `CN(c1ccccc1)c1nc(N)nc(-c2noc(N3CC[C@H](OCC(F)(F)F)C3)n2)n1` [Example 445, 2-N-methyl-2-N-phenyl-6-{5-[(3S)-3-(2,2,2-trifluoroethoxy)pyrrolidin-1-yl]-1,2,4-oxadiazol-3-yl}-1,3,5-triazine-2,4-diamine], the IC50 under setting [1] came out at 3300 nM. `Cc1ccc(-c2nc(-c3nc(N)nc(N(C)c4cccc(Cl)c4)n3)no2)o1` [Example 102, N-(3-Chloro-phenyl)-N-methyl-6-[5-(5-methyl-furan-2-yl)-[1,2,4]oxadiazol-3-yl]-[1,3,5]triazine-2,4-diamine]: the IC50 under setting [2] was 489 nM. As to `FC(F)(F)CNc1nc(Nc2ccccc2)nc(-c2noc(-c3ccc(OCC(F)(F)F)nc3)n2)n1` [Example 151, 2-N-phenyl-6-{5-[6-(2,2,2-trifluoroethoxy)pyridin-3-yl]-1,2,4-oxadiazol-3-yl}-4-N-(2,2,2-trifluoroethyl)-1,3,5-triazine-2,4-diamine], the IC50 under setting [2] was found to be 1480 nM.

Turning to `CN(c1ccccc1)c1nc(N)nc(-c2noc(-c3ccc(OC4CCC4)nc3)n2)n1` [Example 331, 6-[5-(6-cyclobutoxypyridin-3-yl)-1,2,4-oxadiazol-3-yl]-2-N-methyl-2-N-phenyl-1,3,5-triazine-2,4-diamine], the IC50 under setting [1] turned out to be 140 nM. In the case of `CCN(c1ccccc1)c1nc(N)nc(-c2noc(-c3cc(F)ccc3OC)n2)n1` [Example 197, 2-N-ethyl-6-[5-(5-fluoro-2-methoxyphenyl)-1,2,4-oxadiazol-3-yl]-2-N-phenyl-1,3,5-triazine-2,4-diamine], under setting [2], the IC50 turned out to be 571 nM.

For the compound `CN(c1ccccc1)c1nc(N)nc(-c2noc(C3CCN(C(=O)C(F)(F)F)CC3)n2)n1` [Example 159, 1-[4-(3-{4-Amino-6-[methyl(phenyl)amino]-1,3,5-triazin-2-yl}-1,2,4-oxadiazol-5-yl)piperidin-1-yl]-2,2,2-trifluoroethan-1-one], the IC50 under setting [2] was found to be 8670 nM. Turning to `CN(c1ccccc1)c1nc(N)nc(-c2noc(C(=O)N3C[C@@H]4[C@@H](COCC(F)(F)F)[C@@H]4C3)n2)n1` [Example 402, 2-N-methyl-2-N-phenyl-6-(5-{[-6-[(2,2,2-trifluoroethoxy)methyl]-3-azabicyclo[3.1.0]hexan-3-yl]carbonyl}-1,2,4-oxadiazol-3-yl)-1,3,5-triazine-2,4-diamine], the IC50 under setting [1] is 3970 nM. On to `Nc1nc(Nc2cccc(F)c2)nc(-c2noc(N3CCCCC3)n2)n1` [Example 236, 2-N-(3-fluorophenyl)-6-[5-(piperidin-1-yl)-1,2,4-oxadiazol-3-yl]-1,3,5-triazine-2,4-diamine], for which the IC50 under setting [1] stood at 406 nM. For `CC(c1ccc(-c2nc(-c3nc(N)nc(N(C)c4ccccc4)n3)no2)nc1)N1CCCC1` (centres unmarked) [Example 294, 2-N-Methyl-2-N-phenyl-6-(5-{5-[1-(pyrrolidin-1-yl)ethyl]pyridin-2-yl}-1,2,4-oxadiazol-3-yl)-1,3,5-triazine-2,4-diamine], the IC50 under setting [1] worked out at 3980 nM. As to `CN(c1ccccc1)c1nc(N)nc(-c2noc(-c3cccc(N4CCOCC4)n3)n2)n1` [Example 270, 2-N-methyl-6-{5-[6-(morpholin-4-yl)pyridin-2-yl]-1,2,4-oxadiazol-3-yl}-2-N-phenyl-1,3,5-triazine-2,4-diamine], the IC50 under setting [1] worked out at 3650 nM.

Turning to `CS(=O)(=O)c1cccc(Nc2nc(N)nc(-c3noc(-c4ccc(OCC(F)(F)F)nc4)n3)n2)c1` [Example 189, 2-N-(3-methanesulfonylphenyl)-6-{5-[6-(2,2,2-trifluoroethoxy)pyridin-3-yl]-1,2,4-oxadiazol-3-yl}-1,3,5-triazine-2,4-diamine], under setting [2], the IC50 was found to be 287 nM. In the case of `CN(c1ccccc1)c1nc(N)nc(-c2noc([C@@H]3CCCN3C(=O)OC(C)(C)C)n2)n1` [Example 440, tert-butyl (2S)-2-(3-{4-amino-6-[methyl(phenyl)amino]-1,3,5-triazin-2-yl}-1,2,4-oxadiazol-5-yl)pyrrolidine-1-carboxylate], under setting [1], the IC50 came out at 1300 nM. Still for that read-out and setting: the figure for `CN(c1ccccc1)c1nc(N)nc(-c2noc(-c3ccc(OCCC(F)(F)F)nc3)n2)n1` [Example 359, 2-N-methyl-2-N-phenyl-6-{5-[6-(3,3,3-trifluoropropoxy)pyridin-3-yl]-1,2,4-oxadiazol-3-yl}-1,3,5-triazine-2,4-diamine] is 24 nM. For `CN(C)C(=O)c1ccc(-c2nc(-c3nc(N)nc(N(C)c4ccccc4)n3)no2)cn1` [Example 478, 5-{3-[4-Amino-6-(methyl-phenyl-amino)-[1,3,5]triazin-2-yl]-[1,2,4]oxadiazol-5-yl}-pyridine-2-carboxylic acid dimethylamide], under setting [1], the IC50 is 8810 nM. With `CN(c1ccccc1)c1nc(N)nc(-c2noc(-c3ccc(OC4CCCCC4)nc3)n2)n1` [Example 356, 6-{5-[6-(cyclohexyloxy)pyridin-3-yl]-1,2,4-oxadiazol-3-yl}-2-N-methyl-2-N-phenyl-1,3,5-triazine-2,4-diamine], under setting [1], the IC50 worked out at 20 nM. Turning to `Nc1nc(Nc2ccccc2)nc(-c2noc(-c3ccc(COCC4CC4)nc3)n2)n1` [Example 211, 6-(5-{6-[(cyclopropylmethoxy)methyl]pyridin-3-yl}-1,2,4-oxadiazol-3-yl)-2-N-phenyl-1,3,5-triazine-2,4-diamine], the IC50 under setting [1] came to 44 nM.

In the case of `CN(c1ccccc1)c1nc(N)nc(-c2noc(-c3ccc(CN4CCOCC4)nc3)n2)n1` [Example 299, 2-N-methyl-6-{5-[6-(morpholin-4-ylmethyl)pyridin-3-yl]-1,2,4-oxadiazol-3-yl}-2-N-phenyl-1,3,5-triazine-2,4-diamine], the IC50 under setting [1] turned out to be 1110 nM.

Turning to `CN(c1ccccc1)c1nc(N)nc(-c2noc(-c3ccc(=O)[nH]c3)n2)n1` [Example 334, 5-(3-{4-amino-6-[methyl(phenyl)amino]-1,3,5-triazin-2-yl}-1,2,4-oxadiazol-5-yl)-1,2-dihydropyridin-2-one], the IC50 under setting [1] came out at 8450 nM. Still for that read-out and setting: the figure for `CN(c1ccccc1)c1nc(N)nc(-c2noc(-c3ccc(OCC(F)(F)F)cn3)n2)n1` [Example 340, 2-N-methyl-2-N-phenyl-6-{5-[5-(2,2,2-trifluoroethoxy)pyridin-2-yl]-1,2,4-oxadiazol-3-yl}-1,3,5-triazine-2,4-diamine] is 818 nM. Take `CN(c1ccccc1)c1nc(N)nc(-c2noc([C@H]3CCCN3)n2)n1` [Example 439, 2-N-methyl-2-N-phenyl-6-{5-[(2R)-pyrrolidin-2-yl]-1,2,4-oxadiazol-3-yl}-1,3,5-triazine-2,4-diamine hydrochloride]: the IC50 under setting [1] was determined as 4060 nM.

Turning to `CN(c1ccccc1)c1nc(N)nc(-c2noc(-c3ccc(N)nc3)n2)n1` [Example 55, 6-[5-(6-Amino-pyridin-3-yl)-[1,2,4]oxadiazol-3-yl]-N-methyl-N-phenyl-[1,3,5]triazine-2,4-diamine], under setting [2], the IC50 is 4910 nM.

Consider `CCOc1ncccc1-c1nc(-c2nc(N)nc(N(C)c3ccccc3)n2)no1` [Example 419, 6-[5-(2-ethoxypyridin-3-yl)-1,2,4-oxadiazol-3-yl]-2-N-methyl-2-N-phenyl-1,3,5-triazine-2,4-diamine], for which the IC50 under setting [1] is 1450 nM. For the compound `CN(C)CCN(c1ccccc1)c1nc(N)nc(-c2noc(-c3ccco3)n2)n1` [Example 69, N-(2-Dimethylamino-ethyl)-6-(5-furan-2-yl-[1,2,4]oxadiazol-3-yl)-N-phenyl-[1,3,5]triazine-2,4-diamine], the IC50 under setting [2] worked out at 1370 nM.

The values are drawn from patent US8895733B2 (Novartis AG, priority 2010, dated 2014).
